PubChem BioAssay AID2060512 (Molecular Pharmacology Branch, DTP, NCI, 2025)

System: 186277-243-T-J2-PDC complex spheroid viability
Assay: Anticancer human tumor 186277-243-T-J2-PDC patient-derived colon adenocarcinoma cell line growth inhibition [GQUAD]
Settings: for IC50: curve of first compound; for viability, T/C: stronger effect = lower value
Procedure, shortened: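 Viability of tumor cells grown as complex spheroids with endothelial and stromal cells, exposed to drug combinations. Top concentration at or near clinical Cmax (else 10 microM), diluted in half-log increments.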

[1] = second compound 0.0316 µM, first compound 0.0316 µM
[2] = second compound 0.0316 µM, first compound 0.1 µM
[3] = second compound 0.0316 µM, first compound 0.316 µM
[4] = second compound 0.0316 µM, first compound 1 µM
[5] = second compound 0.0316 µM, first compound 3.16 µM
[6] = second compound 0.0316 µM, first compound 10 µM
[7] = second compound 0.1 µM, first compound 0.0316 µM
[8] = second compound 0.1 µM, first compound 0.1 µM
[9] = second compound 0.1 µM, first compound 0.316 µM
[10] = second compound 0.1 µM, first compound 1 µM
[11] = second compound 0.1 µM, first compound 3.16 µM
[12] = second compound 0.1 µM, first compound 10 µM
[13] = second compound 0.316 µM, first compound 0.0316 µM
[14] = second compound 0.316 µM, first compound 0.1 µM
[15] = second compound 0.316 µM, first compound 0.316 µM
[16] = second compound 0.316 µM, first compound 1 µM
[17] = second compound 0.316 µM, first compound 3.16 µM
[18] = second compound 0.316 µM, first compound 10 µM
[19] = second compound 1 µM, first compound 0.0316 µM
[20] = second compound 1 µM, first compound 0.1 µM
[21] = second compound 1 µM, first compound 0.316 µM
[22] = second compound 1 µM, first compound 1 µM
[23] = second compound 1 µM, first compound 3.16 µM
[24] = second compound 1 µM, first compound 10 µM
[25] = second compound 3.16 µM, first compound 0.0316 µM
[26] = second compound 3.16 µM, first compound 0.1 µM
[27] = second compound 3.16 µM, first compound 0.316 µM
[28] = second compound 3.16 µM, first compound 1 µM
[29] = second compound 3.16 µM, first compound 3.16 µM
[30] = second compound 3.16 µM, first compound 10 µM
[31] = second compound 10 µM, first compound 0.0316 µM
[32] = second compound 10 µM, first compound 0.1 µM
[33] = second compound 10 µM, first compound 0.316 µM
[34] = second compound 10 µM, first compound 1 µM
[35] = second compound 10 µM, first compound 3.16 µM
[36] = second compound 10 µM, first compound 10 µM
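For viability, T/C in this document: 100% = DMSO vehicle control viability.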

COc1cccc2c1C(=O)c1c(O)c3c(c(O)c1C2=O)CC(O)(C(=O)CO)CC3OC1CC(N)C(O)C(C)O1 (stereo unspecified) + CN(C)c1ccc(Nc2c3ccc(NC(=O)CCN4CCCC4)cc3nc3cc(NC(=O)CCN4CCCC4)ccc23)cc1
IC50 (second compound 0.0316 µM): 390 nM | IC50 (second compound 0.1 µM): 369 nM | IC50 (second compound 0.316 µM): 311 nM | IC50 (second compound 1 µM): 280 nM | IC50 (second compound 3.16 µM): 380 nM | IC50 (second compound 10 µM): 438 nM | viability, T/C [1]: 109% | viability, T/C [2]: 94.3% | viability, T/C [3]: 59.1% | viability, T/C [4]: 14.6% | viability, T/C [5]: 0.22% | viability, T/C [6]: 0.33% | viability, T/C [7]: 96.2% | viability, T/C [8]: 93.8% | viability, T/C [9]: 54.8% | viability, T/C [10]: 13% | viability, T/C [11]: 0.14% | viability, T/C [12]: 0.11% | viability, T/C [13]: 107% | viability, T/C [14]: 78.9% | viability, T/C [15]: 53.6% | viability, T/C [16]: 19.4% | viability, T/C [17]: 0.17% | viability, T/C [18]: 0.49% | viability, T/C [19]: 105% | viability, T/C [20]: 88.9% | viability, T/C [21]: 43.2% | viability, T/C [22]: 16.6% | viability, T/C [23]: 0.37% | viability, T/C [24]: 0.6% | viability, T/C [25]: 109% | viability, T/C [26]: 91% | viability, T/C [27]: 56.4% | viability, T/C [28]: 19.8% | viability, T/C [29]: 0.3% | viability, T/C [30]: 0.16% | viability, T/C [31]: 97.7% | viability, T/C [32]: 81.6% | viability, T/C [33]: 63.5% | viability, T/C [34]: 21.9% | viability, T/C [35]: 1.2% | viability, T/C [36]: 0.25%

Nc1ccn(C2OC(CO)C(O)C2(F)F)c(=O)n1 (stereo unspecified) + Cc1cnc(CNC(=O)c2c(=O)c3ccc(N4CCCN(C)CC4)nc3n3c2sc2ccccc23)cn1
IC50 (second compound 0.0316 µM): < 31.6 nM | IC50 (second compound 0.1 µM): < 31.6 nM | IC50 (second compound 0.316 µM): < 31.6 nM | IC50 (second compound 1 µM): < 31.6 nM | IC50 (second compound 3.16 µM): < 31.6 nM | IC50 (second compound 10 µM): < 31.6 nM | viability, T/C [1]: 21.2% | viability, T/C [2]: 13.3% | viability, T/C [3]: 12.3% | viability, T/C [4]: 11.9% | viability, T/C [5]: 12.2% | viability, T/C [6]: 12.8% | viability, T/C [7]: 27.1% | viability, T/C [8]: 17.6% | viability, T/C [9]: 15.3% | viability, T/C [10]: 12.9% | viability, T/C [11]: 15.4% | viability, T/C [12]: 15.9% | viability, T/C [13]: 36% | viability, T/C [14]: 28.4% | viability, T/C [15]: 21.5% | viability, T/C [16]: 16.8% | viability, T/C [17]: 18.6% | viability, T/C [18]: 16% | viability, T/C [19]: 32.6% | viability, T/C [20]: 30.2% | viability, T/C [21]: 22.8% | viability, T/C [22]: 21.4% | viability, T/C [23]: 19.9% | viability, T/C [24]: 17.7% | viability, T/C [25]: 33.1% | viability, T/C [26]: 24.8% | viability, T/C [27]: 22.6% | viability, T/C [28]: 19.5% | viability, T/C [29]: 19.3% | viability, T/C [30]: 16.5% | viability, T/C [31]: 34.3% | viability, T/C [32]: 25.1% | viability, T/C [33]: 25.4% | viability, T/C [34]: 18.7% | viability, T/C [35]: 21.4% | viability, T/C [36]: 19.2%

CC(C)(O)C1CCC(Nc2ccc3ncc(-c4cccc(C(F)(F)F)c4)n3n2)CC1 (stereo unspecified) + Cc1cnc(CNC(=O)c2c(=O)c3ccc(N4CCCN(C)CC4)nc3n3c2sc2ccccc23)cn1
IC50 (second compound 0.0316 µM): 2430 nM | IC50 (second compound 0.1 µM): 1670 nM | IC50 (second compound 0.316 µM): 1190 nM | IC50 (second compound 1 µM): < 31.6 nM | IC50 (second compound 3.16 µM): < 31.6 nM | IC50 (second compound 10 µM): < 31.6 nM | viability, T/C [1]: 88.7% | viability, T/C [2]: 85.8% | viability, T/C [3]: 94.4% | viability, T/C [4]: 75.5% | viability, T/C [5]: 43% | viability, T/C [6]: 37.2% | viability, T/C [7]: 81.3% | viability, T/C [8]: 78.1% | viability, T/C [9]: 77% | viability, T/C [10]: 59.6% | viability, T/C [11]: 37.9% | viability, T/C [12]: 34.3% | viability, T/C [13]: 55.5% | viability, T/C [14]: 49.5% | viability, T/C [15]: 66.8% | viability, T/C [16]: 54.2% | viability, T/C [17]: 25.2% | viability, T/C [18]: 20.9% | viability, T/C [19]: 48.5% | viability, T/C [20]: 48.2% | viability, T/C [21]: 46.3% | viability, T/C [22]: 43.2% | viability, T/C [23]: 24.2% | viability, T/C [24]: 22.1% | viability, T/C [25]: 34.5% | viability, T/C [26]: 42.2% | viability, T/C [27]: 38.7% | viability, T/C [28]: 35.3% | viability, T/C [29]: 3.82% | viability, T/C [30]: 0.12% | viability, T/C [31]: 37.5% | viability, T/C [32]: 43.4% | viability, T/C [33]: 37.1% | viability, T/C [34]: 39.7% | viability, T/C [35]: 0.2% | viability, T/C [36]: 0.2%
